Test [1] has as its system Rattus norvegicus. In words: Compound was evaluated in paw test for the forelimb retraction at effective dose of 20 (mg/kg). Format: functional.
Test [2] concerns Rattus norvegicus. Briefly: Compound was evaluated in paw test for the hindlimb retraction at effective dose of 5 (mg/kg). It counts as functional.
The test system of test [3] is Mus musculus. Briefly: Percentage of total immobility time after an intraperitoneal dose of 30 (mg/kg) in porsolt's test. Format: functional.
Test [4] relates to Mus musculus. In words: Percentage of total immobility time after an intraperitoneal dose of 7.5 (mg/kg) in porsolt's test. It counts as functional.
Test [5] deals with Mus musculus. In words: Percentage of total immobility time after an intraperitoneal dose of 15 (mg/kg) in porsolt's test.

As for `O=C(CCCN1CCC(O)(c2ccc(Cl)cc2)CC1)c1ccc(F)cc1` [HALOPERIDOL], the Retraction time came to 22.5 s in test [1] and 30 s in test [2].

As for `CN(C)CCCN1c2ccccc2CCc2ccccc21` [IMIPRAMINE], the Immobility is listed as 70% in test [3], 98% in test [4] and 45% in test [5].

The values are drawn from ChEMBL document CHEMBL1135647, “New pyridobenzodiazepine derivatives: modifications of the basic side chain differentially modulate binding to dopamine (D(4.2), D(2L)) and serotonin (5-HT(2A)) receptors” (J Med Chem, 2002).
